Data published in the supplement of paper PMC10307832.

Key:
Experiment in all cases: relative viability (nuclei count vs DMSO), 5 days (fraction); higher = more cells survive
[1] = compound: CC1=CC(=CC=C1)NC2=NC(=CS2)C3=CC=NC=C3 + CCNC(=O)c1noc(-c2cc(C(C)C)c(O)cc2O)c1-c1ccc(CN2CCOCC2)cc1 [Luminespib] (partner 0.01 µM)
In short: (§1)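 Lung cancer cell lines were seeded in 1536-well plates and dosed by pin tool the next day, with either a single drug or a fixed anchor-drug dose combined with five library-drug doses (not always all listed) spaced in √10 steps. Five days later, one step fixed the cells and stained their nuclei (final 0.05% Triton X-100, 1% formaldehyde, 1 ug/ml Hoechst), and nuclei were counted on 4× images. Relative viability is the nuclei count in treated wells divided by the count in vehicle wells, and each value is the median of duplicate plates.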

[2] = compound: CC1=CC(=CC=C1)NC2=NC(=CS2)C3=CC=NC=C3 + O=C(c1cc(Cc2n[nH]c(=O)c3ccccc23)ccc1F)N1CCN(C(=O)C2CC2)CC1 [Olaparib] (partner 8 µM)
In short: as §1

[3] = compound: Cc1ccc(NC(=O)c2ccc(CN3CCN(C)CC3)cc2)cc1Nc1nc(-c2cccnc2)cs1 [Masitinib] + CS(=O)(=O)N1CCN(Cc2cc3nc(-c4cccc5[nH]ncc45)nc(N4CCOCC4)c3s2)CC1 [Pictilisib] (partner 1 µM)
In short: as §1

[4] = compound: Cc1ccc(NC(=O)c2ccc(CN3CCN(C)CC3)cc2)cc1Nc1nc(-c2cccnc2)cs1 [Masitinib] + NC(=O)Nc1cc(-c2cccc(F)c2)sc1C(=O)N[C@H]1CCCNC1 [AZD7762] (partner 0.2 µM)
In short: as §1

Cell Line	relative viability ([1]; first compound 0.08 µM)	relative viability ([1]; first compound 0.253 µM)	relative viability ([1]; first compound 0.8 µM)	relative viability ([1]; first compound 2.53 µM)	relative viability ([1]; first compound 8 µM)	relative viability ([2]; first compound 0.08 µM)	relative viability ([2]; first compound 0.253 µM)	relative viability ([2]; first compound 0.8 µM)	relative viability ([2]; first compound 2.53 µM)	relative viability ([2]; first compound 8 µM)	relative viability ([3]; first compound 0.01 µM)	relative viability ([3]; first compound 0.1 µM)	relative viability ([3]; first compound 0.3162 µM)	relative viability ([3]; first compound 1 µM)	relative viability ([4]; first compound 0.01 µM)	relative viability ([4]; first compound 0.03162 µM)	relative viability ([4]; first compound 0.1 µM)	relative viability ([4]; first compound 0.3162 µM)	relative viability ([4]; first compound 1 µM)	relative viability ([3]; first compound 0.03162 µM)
NCI-H1993	0.767	0.545	0.546	0.624	0.7	0.945	1.01	0.923	1.11	0.898	0.859	1.05	0.778	0.825	0.786	0.625	0.753	0.745	0.684	–
CAL-12T	0.399	0.355	0.335	0.513	0.29	0.614	0.677	0.609	0.792	0.617	0.519	0.694	0.392	0.293	0.586	0.639	0.606	0.605	0.498	0.377
NCI-H1623	0.496	0.453	0.369	0.371	0.391	–	–	–	–	–	–	–	–	–	–	–	–	–	–	–
HCC-44	0.974	0.939	1.06	1.01	1.09	0.952	0.791	0.764	0.668	0.646	0.633	0.59	0.509	0.543	0.834	0.99	1.02	0.958	1.04	0.436
EKVX	0.854	0.835	0.892	0.819	0.765	0.617	0.72	–	0.525	0.371	–	0.463	0.275	0.412	0.783	0.824	0.71	–	0.637	0.364
NCI-H1666	0.976	0.958	0.773	0.81	0.679	0.677	0.771	0.737	0.766	0.824	0.393	0.474	0.246	0.346	0.763	0.743	0.806	0.527	0.816	0.382
NCI-H2170	0.624	0.701	0.775	0.527	0.48	0.589	0.631	0.473	0.531	0.425	0.32	0.299	0.271	0.301	0.714	0.887	1.01	0.828	0.685	0.28
NCI-H1734	0.203	0.22	0.22	0.192	0.191	0.552	0.584	0.57	0.63	0.539	0.441	0.532	0.412	0.395	0.595	0.515	0.599	0.599	0.545	0.459
Calu-6	–	–	–	–	–	0.422	0.471	0.43	0.479	0.407	0.905	1.06	0.988	0.861	–	–	–	–	–	0.857
EBC-1	–	–	–	–	–	0.575	0.417	0.328	0.41	0.451	0.348	0.427	0.309	0.413	–	–	–	–	–	0.357
A-427	0.738	0.916	0.918	0.729	0.866	0.456	0.576	0.565	0.683	0.615	–	–	0.687	0.601	0.775	0.657	0.689	0.744	0.559	0.55
NCI-H2405	0.583	0.589	0.63	0.666	0.64	0.751	0.75	0.677	–	0.723	0.434	0.445	0.302	0.332	0.741	0.778	0.738	0.692	0.634	0.382
NCI-H1437	1.18	1.17	1.1	1.13	0.98	0.628	0.585	0.525	0.478	0.371	0.432	0.403	0.421	0.382	1.09	1.12	1.22	1.07	1.06	0.421
SK-MES-1	0.614	0.515	0.556	0.749	0.508	0.423	0.437	0.466	0.457	0.401	0.346	0.406	0.332	0.371	–	–	–	–	–	0.312
RERF-LC-KJ	1.06	1.19	0.982	0.999	0.717	0.509	0.258	0.184	0.181	0.163	0.496	0.617	0.404	0.457	0.781	0.934	0.949	0.906	0.92	0.514
NCI-H23	0.208	0.184	0.208	0.221	0.22	0.226	0.228	0.22	0.221	0.235	0.434	0.525	0.495	0.457	0.21	0.273	0.277	0.237	0.198	0.493
HOP-62	0.952	0.8	0.867	0.914	0.879	0.445	0.5	0.471	0.48	0.512	0.652	0.842	0.71	0.557	0.458	0.631	0.837	0.679	0.655	0.676
HARA	0.494	0.872	0.496	0.684	0.359	0.936	0.701	0.524	0.445	0.839	0.389	0.448	0.372	0.412	0.444	0.267	0.216	–	0.143	0.331
PC-14	0.143	0.183	0.171	0.123	0.138	0.298	0.289	0.289	0.238	0.162	0.603	0.77	0.747	0.657	0.349	0.242	0.384	0.366	0.235	0.613
NCI-H1792	0.305	0.407	0.375	0.326	0.351	0.312	0.307	0.248	0.255	0.32	0.277	0.288	0.197	0.225	0.733	0.502	0.611	0.39	0.547	0.209
HCC-78	–	–	–	–	–	0.713	0.791	0.842	0.685	0.674	0.206	0.23	0.19	0.223	0.509	0.524	0.71	0.454	0.572	0.19

Cell Line	relative viability ([1]; first compound 0.08 µM)	relative viability ([1]; first compound 0.253 µM)	relative viability ([1]; first compound 0.8 µM)	relative viability ([1]; first compound 2.53 µM)	relative viability ([1]; first compound 8 µM)	relative viability ([2]; first compound 0.08 µM)	relative viability ([2]; first compound 0.253 µM)	relative viability ([2]; first compound 0.8 µM)	relative viability ([2]; first compound 2.53 µM)	relative viability ([2]; first compound 8 µM)	relative viability ([3]; first compound 0.01 µM)	relative viability ([3]; first compound 0.1 µM)	relative viability ([3]; first compound 0.3162 µM)	relative viability ([3]; first compound 1 µM)	relative viability ([4]; first compound 0.01 µM)	relative viability ([4]; first compound 0.03162 µM)	relative viability ([4]; first compound 0.1 µM)	relative viability ([4]; first compound 0.3162 µM)	relative viability ([4]; first compound 1 µM)	relative viability ([3]; first compound 0.03162 µM)
IA-LM	–	–	–	–	–	0.8	0.779	0.605	0.475	0.714	0.291	0.353	0.455	0.418	–	–	–	–	–	0.415
COR-L23	0.603	0.648	0.564	0.659	0.662	0.308	0.283	0.245	0.322	0.285	0.751	0.844	0.932	0.893	–	–	–	–	–	0.749
COR-L 105	0.727	0.769	0.755	0.591	0.665	0.575	0.499	0.477	0.541	0.457	0.396	0.395	0.412	0.428	–	–	–	–	–	0.356
SK-LU-1	0.205	0.223	–	0.183	0.227	0.49	0.435	–	0.459	0.433	0.483	0.643	0.549	0.518	–	–	–	–	–	0.53
NCI-H1299	–	–	–	–	–	1.01	1	0.889	0.904	0.854	0.8	0.81	0.947	0.736	–	–	–	–	–	0.785
NCI-H661	0.887	0.963	0.885	0.887	0.863	0.736	0.803	0.769	0.75	0.642	0.439	0.511	0.371	0.346	–	–	–	–	–	0.356
NCI-H1703	–	–	–	–	–	0.313	0.33	0.359	0.585	0.447	0.226	0.217	0.203	0.201	0.113	0.158	0.102	0.121	0.106	0.255
NCI-H2228	0.107	0.159	0.194	0.164	0.17	0.396	0.324	0.525	0.559	0.415	0.381	0.398	0.236	0.392	–	–	–	–	–	0.36
NCI-H2009	1.01	0.953	0.905	0.988	1.05	0.629	0.644	0.717	0.677	0.63	0.641	0.756	0.923	0.793	–	–	–	–	–	0.87
SW 1573	0.296	0.19	0.16	0.248	0.253	0.486	0.544	0.526	0.465	0.441	0.471	0.478	0.472	0.452	–	–	–	–	–	0.542
NCI-H522	1.25	1.07	1.34	–	1.28	0.708	0.579	0.746	0.544	0.704	–	–	–	–	0.892	0.874	0.894	0.643	0.795	–
NCI-H2023	0.716	0.706	0.889	0.659	0.427	0.42	0.543	0.38	0.388	0.286	0.225	0.286	0.191	0.243	–	–	–	–	–	0.248
NCI-H1648	–	–	–	–	–	0.545	0.412	0.656	0.477	0.392	–	–	–	–	0.567	0.678	0.711	–	0.679	–
NCI-H1563	0.488	0.546	0.546	0.506	0.541	–	–	–	–	–	0.656	0.647	0.665	0.676	–	–	–	–	–	0.641
NCI-H2342	0.746	0.717	0.771	0.67	0.676	0.438	0.468	0.398	0.476	0.395	–	–	–	–	0.51	0.402	0.427	0.508	0.456	–
SW 900	0.186	0.178	0.172	0.188	0.178	0.751	0.667	0.693	0.433	0.543	–	–	–	–	0.664	0.548	0.568	0.574	0.576	–
HCC-366	–	–	–	–	–	0.352	0.331	0.261	0.286	0.21	0.119	0.131	0.115	0.138	–	0.226	0.256	0.203	0.188	0.0994
A549	–	–	–	–	–	0.264	0.37	0.353	0.261	0.449	0.459	0.478	0.576	0.566	–	–	–	–	–	0.48
NCI-H520	0.223	0.201	0.252	0.206	0.241	0.384	0.325	0.391	0.314	0.288	0.336	0.366	0.313	0.271	–	–	–	–	–	–
NCI-H1650	0.214	0.181	0.222	0.194	0.186	0.539	0.901	0.525	0.488	0.432	0.53	0.583	0.548	0.535	–	–	–	–	–	0.501
